Assay results published in the NIST ThermoML archive (doi:10.1016/j.jct.2018.10.006).

Assay: molar heat capacity at constant pressure
Conditions: 101.33 kPa

O=P([O-])([O-])[O-].[Cs+].[Ni+2] [cesium nickel monophosphate]
Conditions	molar heat capacity at constant pressure [J/K/mol]
344.8 K, Crystal 2, DSC	162.96
345.8 K, Crystal 2, DSC	163.79
346.8 K, Crystal 2, DSC	163.79
347.8 K, Crystal 2, DSC	163.79
348.8 K, Crystal 2, DSC	164.63
349.8 K, Crystal 2, DSC	165.46
350 K, Crystal 2, Small (less than 1 g) adiabatic calorimetry	165.04
350.8 K, Crystal 2, DSC	165.46
351.8 K, Crystal 2, DSC	165.46
352.8 K, Crystal 2, DSC	166.29
353.8 K, Crystal 2, DSC	167.12
354.8 K, Crystal 2, DSC	167.12
355.8 K, Crystal 2, DSC	167.12
356.8 K, Crystal 2, DSC	167.95
357.8 K, Crystal 2, DSC	167.95
358.8 K, Crystal 2, DSC	168.78
359.8 K, Crystal 2, DSC	168.78
360 K, Crystal 2, Small (less than 1 g) adiabatic calorimetry	169.2
360.8 K, Crystal 2, DSC	169.61
361.8 K, Crystal 2, DSC	170.45
362.8 K, Crystal 2, DSC	170.45
363.8 K, Crystal 2, DSC	170.45
364.8 K, Crystal 2, DSC	171.28
365.8 K, Crystal 2, DSC	172.11
366.8 K, Crystal 2, DSC	172.11
367.8 K, Crystal 2, DSC	172.94
368.8 K, Crystal 2, DSC	172.94
369.8 K, Crystal 2, DSC	172.94
370 K, Crystal 2, Small (less than 1 g) adiabatic calorimetry	173.36
370.8 K, Crystal 2, DSC	173.77
371.8 K, Crystal 2, DSC	173.77
372.8 K, Crystal 2, DSC	174.6
373.8 K, Crystal 2, DSC	175.44
374.8 K, Crystal 2, DSC	177.1
376.3 K, Crystal 2, DSC	180.42
380 K, Crystal 2, Small (less than 1 g) adiabatic calorimetry	176.27
382.8 K, Crystal 1, DSC	178.26
382.8 K, Crystal 2, Small (less than 1 g) adiabatic calorimetry	176.68
387.8 K, Crystal 1, DSC	183.75
388.8 K, Crystal 1, DSC	179.59
389.8 K, Crystal 1, DSC	177.93
390 K, Crystal 1, DSC	177.1
390.8 K, Crystal 1, DSC	177.1
391.8 K, Crystal 1, DSC	177.1
392.8 K, Crystal 1, DSC	177.1
393.8 K, Crystal 1, DSC	177.1
394.8 K, Crystal 1, DSC	176.27
395.8 K, Crystal 1, DSC	177.1
396.8 K, Crystal 1, DSC	176.27
397.8 K, Crystal 1, DSC	176.27
398.8 K, Crystal 1, DSC	176.27
399.8 K, Crystal 1, DSC	176.27
400 K, Crystal 1, DSC	175.85
400.8 K, Crystal 1, DSC	175.44
402.8 K, Crystal 1, DSC	175.44
404.8 K, Crystal 1, DSC	174.6
407.1 K, Crystal 1, DSC	174.6
408.8 K, Crystal 1, DSC	174.6
410 K, Crystal 1, DSC	175.02
410.8 K, Crystal 1, DSC	174.6
412.8 K, Crystal 1, DSC	174.6
414.8 K, Crystal 1, DSC	174.6
416.8 K, Crystal 1, DSC	174.6
418.8 K, Crystal 1, DSC	174.6
420 K, Crystal 1, DSC	174.52
420.8 K, Crystal 1, DSC	174.6
422.8 K, Crystal 1, DSC	174.6
424.8 K, Crystal 1, DSC	174.6
426.8 K, Crystal 1, DSC	174.6
428.8 K, Crystal 1, DSC	174.6
430 K, Crystal 1, DSC	174.27
430.8 K, Crystal 1, DSC	174.6
432.8 K, Crystal 1, DSC	174.6
434.8 K, Crystal 1, DSC	174.6
436.8 K, Crystal 1, DSC	174.6
438.8 K, Crystal 1, DSC	174.6
440 K, Crystal 1, DSC	174.27
440.8 K, Crystal 1, DSC	173.77
442.8 K, Crystal 1, DSC	174.6
444.8 K, Crystal 1, DSC	174.6
446.8 K, Crystal 1, DSC	174.6
448.8 K, Crystal 1, DSC	173.77
450 K, Crystal 1, DSC	174.44
450.8 K, Crystal 1, DSC	173.77
452.8 K, Crystal 1, DSC	173.77
454.8 K, Crystal 1, DSC	174.6
456.8 K, Crystal 1, DSC	173.77
458.8 K, Crystal 1, DSC	174.6
460 K, Crystal 1, DSC	174.77
460.8 K, Crystal 1, DSC	174.6
462.8 K, Crystal 1, DSC	174.6
464.8 K, Crystal 1, DSC	174.6
466.8 K, Crystal 1, DSC	174.6
468.8 K, Crystal 1, DSC	175.44
470 K, Crystal 1, DSC	175.19
470.8 K, Crystal 1, DSC	175.44
472.8 K, Crystal 1, DSC	175.44
474.8 K, Crystal 1, DSC	175.44
476.8 K, Crystal 1, DSC	176.27
478.8 K, Crystal 1, DSC	176.27
480 K, Crystal 1, DSC	175.68
480.8 K, Crystal 1, DSC	176.27
482.8 K, Crystal 1, DSC	176.27
484.8 K, Crystal 1, DSC	176.27
486.8 K, Crystal 1, DSC	176.27
488.8 K, Crystal 1, DSC	176.27
490 K, Crystal 1, DSC	176.18
490.8 K, Crystal 1, DSC	177.1
492.8 K, Crystal 1, DSC	177.1
494.8 K, Crystal 1, DSC	177.1
496.8 K, Crystal 1, DSC	177.1
498.8 K, Crystal 1, DSC	177.1
500 K, Crystal 1, DSC	176.77
500.8 K, Crystal 1, DSC	177.1
502.8 K, Crystal 1, DSC	177.1
504.8 K, Crystal 1, DSC	177.1
506.8 K, Crystal 1, DSC	177.1
508.8 K, Crystal 1, DSC	177.1
510 K, Crystal 1, DSC	177.26
510.8 K, Crystal 1, DSC	177.1
512.8 K, Crystal 1, DSC	177.1
514.8 K, Crystal 1, DSC	177.1
516.8 K, Crystal 1, DSC	177.1
518.8 K, Crystal 1, DSC	177.1
520 K, Crystal 1, DSC	177.76
520.8 K, Crystal 1, DSC	177.93
522.8 K, Crystal 1, DSC	177.93
524.8 K, Crystal 1, DSC	177.93
526.8 K, Crystal 1, DSC	177.93
528.8 K, Crystal 1, DSC	177.93
530 K, Crystal 1, DSC	178.26
530.8 K, Crystal 1, DSC	177.93
532.8 K, Crystal 1, DSC	177.93
534.8 K, Crystal 1, DSC	177.93
536.8 K, Crystal 1, DSC	177.93
538.8 K, Crystal 1, DSC	178.76
540 K, Crystal 1, DSC	178.76
540.8 K, Crystal 1, DSC	178.76
542.8 K, Crystal 1, DSC	178.76
544.8 K, Crystal 1, DSC	178.76
546.8 K, Crystal 1, DSC	178.76
548.8 K, Crystal 1, DSC	178.76
550 K, Crystal 1, DSC	179.18
550.8 K, Crystal 1, DSC	178.76
552.8 K, Crystal 1, DSC	178.76
554.8 K, Crystal 1, DSC	179.59
556.8 K, Crystal 1, DSC	179.59
558.8 K, Crystal 1, DSC	179.59
560 K, Crystal 1, DSC	179.59
560.8 K, Crystal 1, DSC	179.59
562.8 K, Crystal 1, DSC	179.59
564.8 K, Crystal 1, DSC	179.59
566.8 K, Crystal 1, DSC	180.42
568.8 K, Crystal 1, DSC	180.42
570 K, Crystal 1, DSC	180.01
570.8 K, Crystal 1, DSC	180.42
572.8 K, Crystal 1, DSC	180.42
574.8 K, Crystal 1, DSC	180.42
576.8 K, Crystal 1, DSC	180.42
578.8 K, Crystal 1, DSC	180.42
580 K, Crystal 1, DSC	180.34
580.8 K, Crystal 1, DSC	180.42
582.8 K, Crystal 1, DSC	180.42
584.8 K, Crystal 1, DSC	180.42
586.8 K, Crystal 1, DSC	180.42
588.8 K, Crystal 1, DSC	180.42
590 K, Crystal 1, DSC	180.76
590.8 K, Crystal 1, DSC	181.26
592.8 K, Crystal 1, DSC	181.26
594.8 K, Crystal 1, DSC	181.26
596.8 K, Crystal 1, DSC	181.26
598.8 K, Crystal 1, DSC	181.26
600 K, Crystal 1, DSC	181.26
600.8 K, Crystal 1, DSC	181.26
602.8 K, Crystal 1, DSC	181.26
604.8 K, Crystal 1, DSC	181.26
606.8 K, Crystal 1, DSC	181.26
608.8 K, Crystal 1, DSC	182.09
610 K, Crystal 1, DSC	181.84
610.8 K, Crystal 1, DSC	182.09
612.8 K, Crystal 1, DSC	182.09
614.8 K, Crystal 1, DSC	182.09
616.8 K, Crystal 1, DSC	182.09
618.8 K, Crystal 1, DSC	182.09
620 K, Crystal 1, DSC	182.5
620.8 K, Crystal 1, DSC	182.09
622.8 K, Crystal 1, DSC	182.92
624.8 K, Crystal 1, DSC	182.92
626.8 K, Crystal 1, DSC	182.92
628.8 K, Crystal 1, DSC	182.92
630 K, Crystal 1, DSC	183.25
630.8 K, Crystal 1, DSC	182.92
632.8 K, Crystal 1, DSC	183.75
634.8 K, Crystal 1, DSC	183.75
636.8 K, Crystal 1, DSC	183.75
638.8 K, Crystal 1, DSC	184.58
640 K, Crystal 1, DSC	184.33
640.8 K, Crystal 1, DSC	184.58
642.8 K, Crystal 1, DSC	184.58
644.8 K, Crystal 1, DSC	184.58
646.8 K, Crystal 1, DSC	185.41
648.8 K, Crystal 1, DSC	185.41
650 K, Crystal 1, DSC	185.58
